Converted amounts (≈) assume the structure as drawn. Values belong to the compound of their own block, whether it stands above or below them.
Experiments:
[1] = Terminal half life in human; format: ADME; settings: read-out: beta t1/2
[2] = Maximum serum concentration in human at 500 mg, po measured within 2 hrs; format: ADME, organism-based; design: dose 500 mg, route oral; settings: in vivo
[3] = system: Haemophilus influenzae; experiment: Antibacterial activity against Haemophilus influenzae; format: functional
[4] = Maximum serum concentration in human at 500 mg, po; format: ADME; design: dose 500 mg, route oral
[5] = Protein binding in plasma (unknown origin); format: ADME, cell-free; settings: read-out: PPB
[6] = system: Streptococcus pneumoniae; experiment: Antibacterial activity against erythromycin-resistant Streptococcus pneumoniae; format: functional
[7] = Inhibition of human nAChR expressed in human TE671 cells assessed as reduction in nicotine-induced current response by whole-cell patch-clamp method; format: cell-based; settings: TE-671
[8] = system: Streptococcus pneumoniae; experiment: Antibacterial activity against erythromycin-susceptible Streptococcus pneumoniae; format: functional
[9] = biological target: Neuronal acetylcholine receptor; alpha3/beta4 (Homo sapiens, UniProt P30926+P32297); experiment: Inhibition of human alpha3beta4 nAChR assessed as […] in acetylcholine-induced normalized current at 2 uM (reference value: 78.5 +/- 10 uM); format: protein-complex assay
Neuronal acetylcholine receptor; alpha3/beta4, sequence (P30926 whole entry): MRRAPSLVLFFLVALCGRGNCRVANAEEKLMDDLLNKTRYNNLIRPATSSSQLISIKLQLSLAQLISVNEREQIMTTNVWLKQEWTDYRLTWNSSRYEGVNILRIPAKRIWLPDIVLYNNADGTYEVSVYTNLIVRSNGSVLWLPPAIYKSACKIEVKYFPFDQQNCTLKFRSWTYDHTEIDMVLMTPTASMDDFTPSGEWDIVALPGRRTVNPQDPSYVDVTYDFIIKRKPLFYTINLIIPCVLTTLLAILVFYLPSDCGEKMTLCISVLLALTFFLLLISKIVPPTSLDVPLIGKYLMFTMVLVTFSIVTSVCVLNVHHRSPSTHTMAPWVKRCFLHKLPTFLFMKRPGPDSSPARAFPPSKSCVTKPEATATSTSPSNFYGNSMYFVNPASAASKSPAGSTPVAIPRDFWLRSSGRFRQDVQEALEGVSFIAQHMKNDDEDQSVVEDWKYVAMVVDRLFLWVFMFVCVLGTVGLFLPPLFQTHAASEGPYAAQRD
Neuronal acetylcholine receptor; alpha3/beta4, sequence (P32297 whole entry): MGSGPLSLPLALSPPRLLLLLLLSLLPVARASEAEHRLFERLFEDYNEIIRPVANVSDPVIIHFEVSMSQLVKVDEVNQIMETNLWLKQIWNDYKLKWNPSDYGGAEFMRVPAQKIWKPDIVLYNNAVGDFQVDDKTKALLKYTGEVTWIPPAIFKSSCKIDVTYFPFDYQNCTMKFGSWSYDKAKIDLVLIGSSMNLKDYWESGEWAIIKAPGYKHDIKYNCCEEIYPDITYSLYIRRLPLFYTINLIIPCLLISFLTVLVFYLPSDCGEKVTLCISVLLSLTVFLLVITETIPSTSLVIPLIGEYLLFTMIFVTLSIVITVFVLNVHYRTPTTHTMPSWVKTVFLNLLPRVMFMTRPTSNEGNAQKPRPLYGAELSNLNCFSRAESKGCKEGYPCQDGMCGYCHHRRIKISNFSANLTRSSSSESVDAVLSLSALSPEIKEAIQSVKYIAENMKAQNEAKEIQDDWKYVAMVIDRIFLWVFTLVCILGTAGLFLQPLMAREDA

- Cmax [4]: 2.5 µg/mL
Compound: CC[C@H]1OC(=O)[C@H](C)[C@@H](O[C@H]2C[C@@](C)(OC)[C@@H](O)[C@H](C)O2)[C@H](C)[C@@H](O[C@@H]2O[C@H](C)C[C@H](N(C)C)[C@H]2O)[C@](C)(OC)C[C@@H](C)C(=O)[C@H](C)[C@@H](O)[C@]1(C)O [CLARITHROMYCIN]

- MIC [3]: 0.5 to 2 µg/mL (≈ 0.681 to 2.73 µM)
Compound: CC[C@H]1OC(=O)[C@H](C)[C@@H](O[C@H]2C[C@@](C)(OC)[C@@H](O)[C@H](C)O2)[C@H](C)[C@@H](O[C@@H]2O[C@H](C)C[C@H](N(C)C)[C@H]2O)[C@](C)(O)C[C@@H](C)C(=O)[C@H](C)[C@@H](O)[C@]1(C)O [ERYTHROMYCIN]

Further lines, the compound ahead of its results:

Compound: CC[C@H]1OC(=O)[C@H](C)[C@@H](O[C@H]2C[C@@](C)(OC)[C@@H](O)[C@H](C)O2)[C@H](C)[C@@H](O[C@@H]2O[C@H](C)C[C@H](N(C)C)[C@H]2O)[C@](C)(O)C[C@@H](C)CN(C)[C@H](C)[C@@H](O)[C@]1(C)O [AZITHROMYCIN]
- half-life [1]: 48 to 96 h
- Cmax [2]: 350 to 450 µg/mL
- MIC [3]: 0.25 µg/mL (≈ 0.334 µM)

Compound: CC[C@H]1OC(=O)[C@H](C)C(=O)[C@H](C)[C@@H](O[C@@H]2O[C@H](C)C[C@H](N(C)C)[C@H]2O)[C@](C)(OCC=Cc2cnc3ccccc3c2)C[C@@H](C)C(=O)[C@H](C)[C@H]2NC(=O)O[C@@]21C [CETHROMYCIN]
- fraction unbound [5]: < 0.04

Compound: CC[C@H]1OC(=O)[C@H](C)C(=O)[C@H](C)[C@@H](O[C@@H]2O[C@H](C)C[C@H](N(C)C)[C@H]2O)[C@](C)(OC)C[C@@H](C)C(=O)[C@H](C)[C@H]2N(CCCCn3cnc(-c4cccnc4)c3)C(=O)O[C@]12C [TELITHROMYCIN]
- MIC [6]: 0.25 µg/mL (≈ 0.308 µM)
- IC50 [7]: 3.5 µM
- MIC [8]: 0.06 µg/mL (≈ 0.0739 µM)
- EC50 [9]: 132 µM

From ChEMBL document CHEMBL4602606, “Differentiating the Pharmacodynamics and Toxicology of Macrolide and Ketolide Antibiotics” (J Med Chem, 2020)
